Reference: patent US11426397B2, “Piperidinyl- and piperazinyl-substituted heteroaromatic carboxamides as modulators of GPR6” (TAKEDA PHARMACEUTICAL COMPANY LIMITED, priority 2017, dated 2022)

Biological target: T1, GPR6 receptor expressed in CHO-K1 cells (Homo sapiens, UniProt P46095)
T1 construct: expressed in transfected cells
Test: In vitro inhibition of cAMP (EC50), cell-based HTRF cAMP assay
Conditions: inhibition of constitutive cAMP activity of GPR6 in CHO-K1 cells
Outline: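 Tetracycline-inducible CHO-K1 line, GPR6 expression induced 20 h with 2 μg/mL doxycycline. Compounds incubated 45 min at 37 °C in Ringer's buffer (pH 7.4) with 0.5% fatty acid free BSA and 300 μM IBMX. Constitutive cAMP read by Lance HTRF; EC50 from four-parameter logistic fit.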

T1 sequence (P46095 whole entry): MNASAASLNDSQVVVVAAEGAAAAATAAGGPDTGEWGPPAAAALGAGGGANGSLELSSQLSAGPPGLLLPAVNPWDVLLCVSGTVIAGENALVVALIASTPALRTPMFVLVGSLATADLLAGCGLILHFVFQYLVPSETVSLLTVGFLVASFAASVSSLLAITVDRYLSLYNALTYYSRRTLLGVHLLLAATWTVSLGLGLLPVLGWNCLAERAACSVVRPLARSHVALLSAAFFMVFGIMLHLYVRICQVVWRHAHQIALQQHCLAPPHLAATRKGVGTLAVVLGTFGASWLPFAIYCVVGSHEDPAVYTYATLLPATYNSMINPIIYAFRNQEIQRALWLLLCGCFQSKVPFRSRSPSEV

Compared with `COc1nn(C)cc1C(=O)Nc1cc(C#N)cnc1N1CCN(Cc2cccc(OC(F)(F)F)c2)CC1` [Example 165, N-(5-cyano-2-(4-(3-(trifluoromethoxy)benzyl)piperazin-1-yl)pyridin-3-yl)-3-methoxy-1-methyl-1H-pyrazole-4-carboxamide], `COc1ncccc1C(=O)Nc1cc(C#N)cnc1N1CCN(Cc2ccc(F)cc2)CC1` [Example 75, N-(5-cyano-2-(4-(4-fluorobenzyl)piperazin-1-yl)pyridin-3-yl)-2-methoxynicotinamide] is higher in “pEC50, in vitro inhibition of cAMP” value: 6.7 for the first, 7.3 for the second.

Going from `Cc1cncc(C(=O)Nc2cc(C#N)ccc2N2CCC(Oc3ccc(F)cc3F)CC2)n1` [Example 130, N-(5-cyano-2-(4-(2,4-difluorophenoxy)piperidin-1-yl)phenyl)-6-methylpyrazine-2-carboxamide] to `Cc1cnc(C(=O)Nc2cc(C#N)ccc2N2CCC(Oc3ccc(F)cc3F)CC2)c(C)n1` [Example 114, N-(5-cyano-2-(4-(2,4-difluorophenoxy)piperidin-1-yl)phenyl)-3,5-dimethylpyrazine-2-carboxamide], the “pEC50, in vitro inhibition of cAMP” value falls from 7.1 to 6.1.

`COc1nn(C)cc1C(=O)Nc1cc(C#N)ncc1N1CCN(Cc2cc(F)c(F)c(F)c2)CC1` [Example 267, N-(2-cyano-5-(4-(3,4,5-trifluorobenzyl)piperazin-1-yl)pyridin-4-yl)-3-methoxy-1-methyl-1H-pyrazole-4-carboxamide] and `COc1ncccc1C(=O)Nc1cc(C#N)ccc1N1CCN(Cc2c(F)cccc2F)CC1` [Example 249] are the same in “pEC50, in vitro inhibition of cAMP” value: 6.4 for the first, 6.4 for the second.

`COc1cscc1C(=O)Nc1cc(C#N)ccc1N1CCC(Oc2ccc(F)cc2F)CC1` [Example 47, N-(5-cyano-2-(4-(2,4-difluorophenoxy)piperidin-1-yl)phenyl)-4-methoxythiophene-3-carboxamide] and `COc1ccsc1C(=O)Nc1cc(C#N)ccc1N1CCC(Oc2ccc(F)cc2F)CC1` [Example 46, N-(5-cyano-2-(4-(2,4-difluorophenoxy)piperidin-1-yl)phenyl)-3-methoxythiophene-2-carboxamide] are the same in “pEC50, in vitro inhibition of cAMP” value: 7.2 for the first, 7.2 for the second.

First: Cn1cccc(C(=O)Nc2cc(C#N)ccc2N2CCC(Oc3c(F)cccc3F)CC2)c1=O [Example 13, N-(5-cyano-2-(4-(2,6-difluorophenoxy)piperidin-1-yl)phenyl)-1-methyl-2-oxo-1,2-dihydropyridine-3-carboxamide]
Second: COc1ccc(C(=O)C2CCN(c3ccc(C#N)cc3NC(=O)c3cccn(C)c3=O)CC2)c(F)c1 [Example 81, N-(5-cyano-2-(4-(2-fluoro-4-methoxybenzoyl)piperidin-1-yl)phenyl)-1-methyl-2-oxo-1,2-dihydropyridine-3-carboxamide]
The “pEC50, in vitro inhibition of cAMP” value of the first is lower: 6.3 for the first, 6.9 for the second.

`CCc1cc(C(=O)Nc2cc(C#N)ccc2N2CCC(Oc3ccc(F)cc3F)CC2)no1` [Example 118, N-(5-cyano-2-(4-(2,4-difluorophenoxy)piperidin-1-yl)phenyl)-5-ethylisoxazole-3-carboxamide] and `N#Cc1ccc(N2CCC(Oc3ccc(F)cc3F)CC2)c(NC(=O)c2ccon2)c1` [Example 117, N-(5-cyano-2-(4-(2,4-difluorophenoxy)piperidin-1-yl)phenyl)isoxazole-3-carboxamide] are within 0.2 log units of each other in “pEC50, in vitro inhibition of cAMP” value: 6.4 for the first, 6.3 for the second.

`Cc1cn2c(=O)c(C(=O)Nc3cc(C#N)ccc3N3CCC(Oc4ccc(F)cc4F)CC3)cnc2s1` [Example 217, N-(5-cyano-2-(4-(2,4-difluorophenoxy)piperidin-1-yl)phenyl)-2-methyl-5-oxo-5H-thiazolo[3,2-a]pyrimidine-6-carboxamide] and `Cc1cccc2ncc(C(=O)Nc3cc(C#N)ccc3N3CCC(Oc4ccc(F)cc4F)CC3)c(=O)n12` [Example 187, N-(5-cyano-2-(4-(2,4-difluorophenoxy)piperidin-1-yl)phenyl)-6-methyl-4-oxo-4H-pyrido[1,2-a]pyrimidine-3-carboxamide] are within 0.2 log units of each other in “pEC50, in vitro inhibition of cAMP” value: 6.7 for the first, 6.6 for the second.

First: COc1ccc(OC)c(C(=O)Nc2cc(C#N)ccc2N2CCC(Oc3ccc(F)cc3F)CC2)c1 [Example 205, N-(5-cyano-2-(4-(2,4-difluorophenoxy)piperidin-1-yl)phenyl)-2,5-dimethoxybenzamide]
Second: COc1cccc(C)c1C(=O)Nc1cc(C#N)ccc1N1CCC(Oc2ccc(F)cc2F)CC1 [Example 227, N-(5-cyano-2-(4-(2,4-difluorophenoxy)piperidin-1-yl)phenyl)-2-methoxy-6-methylbenzamide]
The “pEC50, in vitro inhibition of cAMP” value of the first is higher: 6.0 for the first, 5.8 for the second.

Compared with `COc1ccccc1CN1CCN(c2ccc(C#N)cc2NC(=O)c2cccnc2OC)CC1` [Example 247, N-(5-cyano-2-(4-(2-methoxybenzyl)piperazin-1-yl)phenyl)-2-methoxynicotinamide], `COc1ncccc1C(=O)Nc1cc(C#N)ccc1N1CCN(Cc2ccccc2C#N)CC1` [Example 245, N-(5-cyano-2-(4-(2-cyanobenzyl)piperazin-1-yl)phenyl)-2-methoxynicotinamide] is higher in “pEC50, in vitro inhibition of cAMP” value: 5.9 for the first, 7.0 for the second.

First: COc1c(C(=O)Nc2ccc(C#N)nc2N2CCC(Oc3ccc(F)cc3F)CC2)cnn1C [Example 256, N-(6-cyano-2-(4-(2,4-difluorophenoxy)piperidin-1-yl)pyridin-3-yl)-5-methoxy-1-methyl-H-pyrazole-4-carboxamide]
Second: COc1nn(C)cc1C(=O)Nc1cc(C)cnc1N1CCC(Oc2ccc(F)cc2F)CC1 [Example 36, N-(2-(4-(2,4-difluorophenoxy)piperidin-1-yl)-5-methylpyridin-3-yl)-3-methoxy-1-methyl-1H-pyrazole-4-carboxamide]
The “pEC50, in vitro inhibition of cAMP” value of the first is lower: 6.7 for the first, 7.0 for the second.

Going from `COc1cccnc1C(=O)Nc1cc(C#N)ccc1N1CCC(Oc2ccc(F)cc2F)CC1` [Example 26, N-(5-cyano-2-(4-(2,4-difluorophenoxy)piperidin-1-yl)phenyl)-3-methoxypicolinamide] to `N#Cc1ccc(N2CCC(Oc3ccc(F)cc3F)CC2)c(NC(=O)c2ccsn2)c1` [Example 128, N-(5-cyano-2-(4-(2,4-difluorophenoxy)piperidin-1-yl)phenyl)isothiazole-3-carboxamide], the “pEC50, in vitro inhibition of cAMP” value rises from 6.4 to 6.6.

Going from `COc1ncccc1C(=O)Nc1cc(C#N)ccc1N1CCN(Cc2ccc(F)cc2C#N)CC1` [Example 291, N-(5-cyano-2-(4-(2-cyano-4-fluorobenzyl)piperazin-1-yl)phenyl)-2-methoxynicotinamide] to `COc1ncccc1C(=O)Nc1cnc(C)cc1N1CCC(Oc2ccc(C#N)cc2F)CC1` [Example 40, N-(4-(4-(4-cyano-2-fluorophenoxy)piperidin-1-yl)-6-methylpyridin-3-yl)-2-methoxynicotinamide], the “pEC50, in vitro inhibition of cAMP” value falls from 6.9 to 6.2.

Compared with `COc1ncccc1C(=O)Nc1cnc(C(=O)N(C)C)nc1N1CCC(Oc2ccc(F)cc2F)CC1` [Example 281, 4-(4-(2,4-difluorophenoxy)piperidin-1-yl)-5-(2-methoxynicotinamido)-N,N-dimethylpyrimidine-2-carboxamide], `COc1ncccc1C(=O)Nc1cc(C#N)c(C(=O)N(C)C)cc1N1CCC(Oc2ccc(F)cc2F)CC1` [Example 273] is higher in “pEC50, in vitro inhibition of cAMP” value: 6.4 for the first, 7.3 for the second.

`COc1cc(Cl)c(Cl)cc1C(=O)Nc1cc(C#N)ccc1N1CCC(Oc2ccc(F)cc2F)CC1` [Example 190, 4,5-dichloro-N-(5-cyano-2-(4-(2,4-difluorophenoxy)piperidin-1-yl)phenyl)-2-methoxybenzamide] and `COc1cc(C(C)(C)C)ccc1C(=O)Nc1cc(C#N)ccc1N1CCC(Oc2ccc(F)cc2F)CC1` [Example 216, 4-(tert-butyl)-N-(5-cyano-2-(4-(2,4-difluorophenoxy)piperidin-1-yl)phenyl)-2-methoxybenzamide] are within 0.2 log units of each other in “pEC50, in vitro inhibition of cAMP” value: 6.5 for the first, 6.4 for the second.

Going from `N#Cc1ccc(N2CCC(Oc3ccc(F)cc3F)CC2)c(NC(=O)c2cccc3c2OCC3)c1` [Example 27, N-(5-cyano-2-(4-(2,4-difluorophenoxy)piperidin-1-yl)phenyl)-2,3-dihydrobenzofuran-7-carboxamide] to `N#Cc1ccc(N2CCC(Oc3ccc(F)cc3F)CC2)c(NC(=O)c2cscn2)c1` [Example 112, N-(5-cyano-2-(4-(2,4-difluorophenoxy)piperidin-1-yl)phenyl)thiazole-4-carboxamide], the “pEC50, in vitro inhibition of cAMP” value falls from 7.4 to 6.4.

Going from `COCc1cc(N2CCC(Oc3ccc(F)cc3F)CC2)c(NC(=O)c2cccnc2OC)cn1` [Example 268] to `Cn1cccc(C(=O)Nc2cnc(Cl)cc2N2CCC(Oc3ccc(F)cc3F)CC2)c1=O` [Example 17, N-(6-chloro-4-(4-(2,4-difluorophenoxy)piperidin-1-yl)pyridin-3-yl)-1-methyl-2-oxo-1,2-dihydropyridine-3-carboxamide], the “pEC50, in vitro inhibition of cAMP” value rises from 6.9 to 7.2.

Going from `CN(C(=O)c1ccccc1O)c1ccccc1N1CCN(C(=O)c2ccc(Cl)cc2)CC1` [Example 260] to `N#Cc1cnc(N2CCC(Oc3ccc(F)cc3F)CC2)c(NC(=O)c2ccccn2)c1` [Example 66, N-(5-cyano-2-(4-(2,4-difluorophenoxy)piperidin-1-yl)pyridin-3-yl)picolinamide], the “pEC50, in vitro inhibition of cAMP” value rises from 4.9 to 7.3.

For `COc1nc(C)cc(C)c1C(=O)Nc1cc(C#N)ccc1N1CCC(Oc2ccc(F)cc2F)CC1` [Example 80, N-(5-cyano-2-(4-(2,4-difluorophenoxy)piperidin-1-yl)phenyl)-2-methoxy-4,6-dimethylnicotinamide], the “pEC50, in vitro inhibition of cAMP” value was 6.3.

For `N#Cc1ccc(N2CCC(Oc3ccc(F)cc3F)CC2)c(NC(=O)c2cnon2)c1` [Example 139, N-(5-cyano-2-(4-(2,4-difluorophenoxy)piperidin-1-yl)phenyl)-1,2,5-oxadiazole-3-carboxamide], the “pEC50, in vitro inhibition of cAMP” value was under 4.5.
